The values below come from a melting point compilation (Tetko et al.; mined from patent text by program, amines drawn as free bases though some values may be those of a salt).

For orientation: melting point means the temperature, or range, at which the solid turns liquid.

`O[C@@H]1CN(Cc2ccccc2)C[C@@H]1Oc1cccc(Cl)c1` (relative stereo) displayed a melting point of 86 to 87.5 °C. As for `Cn1nnnc1-c1cn(C)c2cc(F)ccc2c1=O`, the figure is 264 to 267 °C; as for `CCn1ccc(=O)[nH]c1=O`, 150 °C. `Cc1c(C(=O)O)ccc(Oc2cccnc2)c1S(C)(=O)=O` had a melting point of 214 to 216 °C. In the case of `Cc1nc(N2CCN(Cc3ccc(F)cc3)C2=O)sc1C(=O)NCc1cnccn1`, the melting point was in the range of 185 to 187 °C.

In turn, `O=C1C=CC(=O)N1c1ccc(Oc2ccc3ccc(Oc4ccc(N5C(=O)C=CC5=O)cc4)cc3c2)cc1` displayed a melting point of 162 to 164 °C. The result for `O=C(O)CCc1cn(Cc2cc(OCc3ccccc3)cc(OCc3csc(-c4cnccn4)n3)c2)cc1-c1ccccc1` reads 109 to 110 °C; that for `Nc1ccc(C(=O)NC2CCN(c3ccccc3)C2)cc1` (stereo unspecified), 213 to 216 °C.

On to `COc1cc(C=CC(=O)Cc2ccccc2)ccc1O`, for which the melting point is 85 to 87 °C. The result for `Cc1ccc(C23CC4CC(C2)CC(c2ccc(C)cc2)(C4)C3)cc1` reads 145 to 146 °C. The result for `CN(C)S(=O)(=O)c1ccc(F)cc1` reads 40 to 43 °C; that for `CCCc1nc2ccccc2n1CCC1CCN(c2ccccc2-c2nnn[nH]2)CC1`, 231 to 233 °C; that for `O=C(O)Cc1ccc(NC(=O)C(COc2cccc(Cl)c2)NS(=O)(=O)c2ccc(F)cc2)cc1` (racemic), 195 to 197 °C. As for `CC1CCC(C(=O)N(C)C)=C2NC=CC(=O)N21` (stereo unspecified), the figure is 78 °C. For the compound `Clc1nccc(N2CCC3(CC2)OCc2ccccc23)c1Cl`, the melting point was 161 °C. As for `CC(C(=O)NCc1ccc(C(C)(C)C)cc1)c1ccc(NS(C)(=O)=O)c(F)c1` (stereo unspecified), the figure is 52 to 54 °C; as for `COC(=O)c1ccc(-c2nc(C(N)=O)c3[nH]c(=O)n(-c4ccccc4OC)c3n2)cc1`, 286 to 290 °C; as for `COc1ccc(-c2nnc3c4ccccc4c(OC4CCNC4=O)nn23)cc1` (stereo unspecified), 290 to 293 °C. With `CCn1c(=O)c2c(-c3noc(C4CC4)n3)ncn2c2cccnc21`, the melting point was 254 to 255 °C. As for `CN(C)CCNc1nc2cc(Cl)c(Cl)cc2nc1-c1ccccn1`, the figure is 95 to 97 °C; as for `CN1C(=O)C(NC(=O)Nc2ccccc2)N(C)C1=O` (stereo unspecified), 188 to 189 °C. The result for `OCC1(O)CSC(=S)N1c1ccccn1` (stereo unspecified) reads 134 to 135 °C; that for `CC1(C)Oc2ccc(C#N)cc2C(NC(=O)Nc2ccc3c(c2)CCC3)C1O` (stereo unspecified), 235 to 237 °C. The result for `COc1ccc2nc(CBr)ccc2c1` reads 103 °C.

`Cc1cc(CC#N)cc(CC#N)c1` showed a melting point of 75 to 78 °C. The result for `O=C(O)c1cc(Sc2nc3cc(Cl)ccc3[nH]2)c2[nH]c(=O)[nH]c2c1` reads 326 to 330 °C; that for `O=C(C=C(C(=O)O)c1csc(NC(=O)OCc2ccccc2)n1)OCc1ccccc1`, 144 to 146 °C. As for `COc1cc2c(Nc3ccc(Oc4ccccc4)cc3)c(C#N)cnc2cc1OCCCl`, the figure is 148 to 151 °C; as for `O=c1oc2cc(O)c(O)cc2c2c1CN(CCN1CCOCC1)CC2`, 299 to 302 °C. The result for `CCOC(=O)COn1c2c([nH]c(=O)c1=O)CCC1=C2C=C(n2ccc(CNC(=O)C(F)(F)F)c2)CC1` reads 199 °C; that for `CC1CCC(C(C)C)C(OC(=O)C2C(=O)N(Cc3ccc(Br)cc3F)C(=O)c3cccn32)C1` (stereo unspecified), 98 to 99 °C; that for `O=S1(=O)CCCc2[nH]c3ccccc3c2CC1`, 207 to 208 °C. In the case of `COC(=O)c1cc(OC)c(OC)c(OC)c1-c1c(C(=O)OC)cc2c(c1OC)OCO2`, the melting point was 109 to 110 °C.

For the compound `Cc1ccn2c(C)c(CCc3ccc4nc(C)oc4c3)nc2c1`, the melting point lay in the range of 83 to 85 °C. As for `CCN(CC)S(=O)(=O)c1cc(O)c(N=Nc2c(C)nn(CC)c2O)c2ccccc12`, the figure is 174 to 175 °C; as for `CNC(=O)n1nc(Oc2ccc(C(F)(F)F)cc2[N+](=O)[O-])cc1C(F)(F)F`, 102 to 104 °C; as for `Cc1c(OCc2ccccc2)ccc2c(O)c(C(=O)Nc3cccc(Br)c3)c(=O)oc12`, 229 to 231 °C.

`CCOC(=O)c1cc2ccc(C#N)cc2[nH]1` registered a melting point of 176 °C. As for `FC(F)(F)CSc1nc(-c2ccccc2)c(-c2ccccc2)[nH]1`, the figure is 186 to 187 °C. Turning to `N#CCC1CCN(c2ccc(N3C[C@H](CO)OC3=O)cc2)CC1`, the melting point was in the range of 110 to 112 °C. In the case of `CS(=O)(=O)c1ccc(-c2coc3ccc(-c4nnc(N)o4)cc23)cc1Cl`, the melting point lay within 263 to 264 °C. The result for `CC(C)(O)CC(=O)N[C@H]1CC[C@H](CCN2CCC(c3cccc4c3CCO4)CC2)CC1` reads 168 °C; that for `O=C(O)CNC(=O)c1nc2ccc(OCC(F)(F)C(F)(F)C(F)(F)C(F)F)cc2cc1O`, 170 to 172 °C; that for `Cc1ccccc1OCC1CO1` (stereo unspecified), 114 to 116 °C. As for `CC(=O)Nc1cccc(CNc2nc(Nc3cccc(NS(C)(=O)=O)c3)nc3[nH]cnc23)c1`, the figure is 159 to 162 °C; as for `CNC(=S)NN=C(CCCCl)c1ccccc1`, 94 to 96 °C. As for `COc1cc2c(cc1OC)N(C)C(=O)CN=C2c1cccnc1`, the figure is 177 to 179 °C; as for `CCOc1cc(N(CC)CC)ccc1C1(N(c2ccccc2)c2ccc(NC(C)=O)cc2)OC(=O)c2ccccc21` (stereo unspecified), 126 to 131 °C. As for `CCCN1C(=O)N(c2ccc(N3CCN(c4ccc(O)cc4)CC3)cc2)NC1C` (stereo unspecified), the melting point stood at 253 °C. The result for `C=CCc1c(O)ccc2oc(C(=O)OCC)cc12` reads 94 to 95 °C. `Cn1c(-c2ccccc2)cc2oc(=O)nc(-c3ccccc3)c2c1=O`: the melting point is 178 to 179 °C. As for `COc1ccccc1NC(=O)Nc1nc(Cl)nc(N(CCC(=O)O)Cc2cccc(C)c2)n1`, the figure is 205 °C; as for `Cc1nc(NC(=O)c2ccn(-c3ccccc3)c(=O)c2)sc1C(=O)NCc1ccccc1`, 260 to 262 °C; as for `CC1=NOCC1(C)S(=O)(=O)n1nc(Cl)nc1-c1ccccc1` (stereo unspecified), 70 to 74 °C.

On to `Cc1ccncc1-c1cc2ccncc2c(N)n1`, for which the melting point is 280 to 282 °C.

The compound `O=C(Nc1ccc(C(F)(F)F)cc1)OC1CCCNC1` (stereo unspecified) yielded a melting point of 150 to 151 °C. In turn, `N#Cc1ccc(C2C(=O)N(Cc3ccccc3)Cc3cncn32)cc1` (stereo unspecified) returned a melting point of 163 to 165 °C.

`NC(=O)CNC(=O)c1cccc(-c2cccc3c(F)c(Cc4cccc(C(F)(F)F)c4)sc23)c1` displayed a melting point of 127 to 128 °C. For the compound `Clc1ccc(NC2CCN(Cc3ccccc3)CC2)nn1`, the melting point was in the range of 208 to 209 °C. The result for `CCCc1c(OCCCCCC(=O)NCCCCCCc2cccnc2)ccc(C(C)=O)c1O` reads 56 to 58 °C; that for `Cc1cc2c(cc1C(F)(F)F)N(C(=O)Nc1ccc(OCc3ccccn3)nc1)CC2`, 219 to 220 °C; that for `Cn1ncnc1COc1nn2c(-c3ccc(F)cc3)nncc2c1-c1ccccc1F`, 191 °C.

With `COC(=O)C(=CNc1ccsc1C(=O)O)SC`, the melting point was in the range of 179 to 180 °C. In turn, `C=CCn1nnc2cc(F)c(-n3c(=O)cc(C(F)(F)F)n(C)c3=O)cc21` showed a melting point of 136 to 138 °C.

In turn, `CCOC(=O)c1nc(-c2cccc(F)c2)c(-c2ccc(=O)n(C(C)C)n2)s1` yielded a melting point of 154 to 155 °C. In turn, `Cc1ccc(C(=O)OC(C)c2nc3c(c(=O)n(C)c(=O)n3C)n2C)c(C)n1` (stereo unspecified) registered a melting point of 160 °C.

For the compound `Cc1c(C)c2c(c(C)c1O)CC(C)C(C(=S)Nc1ccccc1)O2` (stereo unspecified), the melting point was 175 °C. As for `C[C@@H](Nc1ncnc2cc(OCCOS(C)(=O)=O)c([N+](=O)[O-])cc12)c1ccccc1`, the figure is 128 to 134 °C. The result for `COc1ccc(NCc2c(F)c(F)c(C(F)(F)F)c(F)c2F)cc1C(=O)O` reads 94 °C; that for `CCc1cc(OCc2ccc(-c3ccccc3-c3nnn(C(c4ccccc4)(c4ccccc4)c4ccccc4)n3)cc2)c2c(n1)CCN(C)C2`, 143 to 144 °C. The result for `COc1cc(Cl)ccc1C(=O)Nc1ccc(-n2nc(C(F)(F)F)cc2C(F)(F)F)cc1` reads 178 to 180 °C. The compound `Nc1cccc2c1C(=O)N([C@@H]1CCC(=O)NC1=O)C2=O` returned a melting point of 308 to 310 °C. The result for `CC(C)C(=O)c1cn(Cc2c(F)cccc2F)c2sc(-c3ccccc3)c(CBr)c2c1=O` reads 189 to 192 °C. The result for `CCN(CC)CC#CC(=O)c1ccc(C)cc1` reads 115 to 117 °C. The result for `Cc1cc(C)n(-c2ncc(C)c(Nc3ccc(Cl)cc3)n2)n1` reads 179 to 182 °C; that for `CC(=O)Nc1ccc(Oc2ncc(Cl)cn2)cc1`, 202 °C; that for `CCOC(=O)[C@H](C)Oc1ccc2cc(Br)ccc2c1`, 72 to 74 °C. In turn, `Oc1ccccc1N1CCC(CNC[C@H]2COc3ccc(Cl)cc3O2)CC1` yielded a melting point of 84 to 86 °C.

Compound `CCn1nc(OC2COCCC2=O)c(-c2ccc(F)cc2)c1-c1ccc(S(C)(=O)=O)cc1` (stereo unspecified) gave a melting point of 181 to 182 °C.

For the compound `N#Cc1c(N2CCN(C(=O)c3c[nH]cn3)CC2)c2ccccc2n(Cc2ccc(F)cc2)c1=O`, the melting point is 176 to 183 °C. Take `FC(F)(F)Oc1ccc(Nc2cc(N3CCCC3)cc(-c3ccccc3)n2)cc1`: the melting point is 141 to 143 °C. `CC(=O)c1ccc(N(C)C)c(S(N)(=O)=O)c1` came in with a melting point of 184 to 185 °C. As for `CS(=O)(=O)c1ccc(-c2cnn(CC(=O)c3ccc(C(F)(F)F)cc3)c(=O)c2-c2ccc(F)cc2)cc1`, the figure is 205 to 206 °C; as for `Nc1cc(-n2cc(C(=O)O)c(=O)c3cc(F)c(F)c(Cl)c32)c(F)cc1F`, 225 to 226 °C; as for `COc1ccnc(C(=O)c2[nH]c3cc(Cl)ccc3c2NC(=O)N(C)OC)c1`, 184 to 185 °C.

Regarding `Cc1cc(-c2cc3cc(OCCNC[C@H](O)c4cccc(C(F)(F)F)c4)ccc3o2)no1`, the melting point was in the range of 126 to 127 °C.
